The values below come from patent publication US20080279781A1, “Glycosylated Carboranylporphyrins and Uses Thereof” (Brookhaven Science Associates, LLC, priority 2007, published 2008).

In data set [1] the test system is tumors. As to conditions: in vivo; cited from earlier work.
A short description of data set [2]: Weight changes and hematologic parameters in mice bearing EMT-6 carcinomas. As to conditions: median (range), 5 mice. Type of data set: in vivo, BALB/c mice. On the procedure: (§1) BALB/c mice bearing subcutaneously implanted EMT-6 mammary carcinomas implanted on the dorsal thorax were given a total dose of 200-230 milligrams porphyrin compound (VII or XII) per kilogram body weight (32-37 mg B/kg). Mice were given six intraperitoneal injections over a 2-day period with 3 injections per day at 4-hour intervals. At one and two days after the last injection, mice were euthanized, and tumor, blood, brain, and liver were removed for boron analyses by direct current-plasma-atomic-emission spectrometry (DCP-AES). The blood was first analyzed for hematologic parameters that indicate toxicity before it was analyzed for boron.

Data set [3] has as its system EMT-6 mammary carcinomas. Put plainly: Biodistribution of porphyrins in mice bearing EMT-6 carcinomas (boron by DCP-AES). Type of data set: in vivo, BALB/c mice. As to conditions: n = 5; for Average boron concentration, EMT-6 Tumor: wet tissue. On the procedure:
(§2) Porphyrin compounds (VII, XII, XXIII) were emulsified in 3% Cremophor EL and 6% propylene glycol in saline.
(§3) To prepare a solution of ˜3.5 mg/mL porphyrin in 3% Cremophor EL (CRM) and 6% propylene glycol (PRG), the porphyrin was dissolved in tetrahydrofuran (THF) (1.5% of the total volume) and then heated to 40° C. for 15 min. CRM (3% of total volume) was then added and the mixture was heated to 60° C. for 2 hours, which removed most of the THF. After cooling to room temperature, PRG (6% of total volume) was added, followed by slow dropwise addition of saline (89.5% of total volume) with rapid stirring. The solution was degassed by stirring under vacuum (˜30 mm Hg) for 30-60 min and then filtered (Millipore, 8 μm).
as §1

The test system of data set [4] is SCCVII squamous cell carcinomas. Briefly: Biodistribution of porphyrins in mice bearing SCCVII squamous cell carcinomas. The class given is in vivo, C3H mice. As to conditions: for Average boron concentration, SCCVII Tumor: wet tissue. The procedure: as §2, §3
(§4) C3H mice bearing subcutaneously implanted SCCVII squamous cell carcinomas implanted on the dorsal thorax were given a total dose of 450 milligrams porphyrin compound VII per kilogram body weight (70 mg B/kg) via 6 i.p. injections given over a period of 2 days (3/day over 8 hours). Mice were given porphyrin XXIII at a total dose of 160 mg/kg (36 mg/kg B) via 3 i.p. injections given over a period of 8 hours. At one and two days after the last injection, mice were euthanized, and tumor, blood, brain, and liver were removed for boron analyses. The blood was first analyzed for hematologic parameters that indicate toxicity before it was analyzed for boron.

Data set [5] can be described thus: Weight changes and hematologic parameters in mice bearing SCCVII carcinomas. The class given is in vivo, C3H mice. As to conditions: for % Weight change / Granulocytes / Lymphocytes / Platelets: median (range). On the procedure: as §4
The mark [6] stands for this setting: 230 mg/kg i.p., 1 d after last injection.
The mark [7] stands for this setting: 230 mg/kg i.p., 2 d after last injection.
[8] abbreviates: 230 mg/kg (37 mg B/kg) in 6 i.p. injections over 2 days, 1 d after last injection.
Setting [9] is: 230 mg/kg (37 mg B/kg) in 6 i.p. injections over 2 days, 2 d after last injection.
Where [10] appears, read: 450 mg/kg (70 mg B/kg) in 6 i.p. injections over 2 days, 1 d after last injection, 5 mice.
Where [11] appears, read: 200 mg/kg i.p., 1 d after last injection.
Where [12] appears, read: 200 mg/kg i.p., 2 d after last injection.
Where [13] appears, read: 200 mg/kg (32 mg B/kg) in 6 i.p. injections over 2 days, 1 d after last injection.
Setting [14] is: 200 mg/kg (32 mg B/kg) in 6 i.p. injections over 2 days, 2 d after last injection.
The mark [15] stands for this setting: 450 mg/kg (70 mg B/kg) i.p., 1 d after last injection, 5 mice.
Where [16] appears, read: 160 mg/kg (36 mg B/kg in title, 160/39 in table) in 3 i.p. injections over 8 hours, 1 d after last injection, 4 mice.
[17] abbreviates: 160 mg/kg (36 mg B/kg in title, 160/39 in table) in 3 i.p. injections over 8 hours, 2 d after last injection, 4 mice.
Setting [18] is: 180 mg/kg (39 mg B/kg) per table title, 160 mg/kg in text, i.p., 1 d after last injection, 4 mice.
The mark [19] stands for this setting: 180 mg/kg (39 mg B/kg) per table title, 160 mg/kg in text, i.p., 2 d after last injection, 4 mice.

`N[C@@H](Cc1ccc(B(O)O)cc1)C(=O)O` [BPA, p-boronophenylalanine]: in data set [1], the chemical toxicity result is recorded as “low chemical toxicity”.
For “Copper (II) meso-5,15-bis[3-(o-carboranylmethoxy)phenyl]-10,20-bis[3-(β-D-galactose)phenyl]porphyrin [Porphyrin XII]”, in data set [2] (setting [6]), the “% Weight change” value is reported as 1.2 (−3.5-4.8) %, the Granulocytes is given as 61 (38-71) % WBC, the Lymphocytes is on record as 36 (26-59) % WBC and the Platelets is reported as 962 (944-1306) 10^3/mm^3. Moreover, in data set [2] (setting [7]), the “% Weight change” value is recorded as 3.4 (−2.2-4.8) %, the Granulocytes is 43 (34-76) % WBC, the Lymphocytes was 54 (22-63) % WBC and the Platelets is 797 (736-877) 10^3/mm^3. In addition, in data set [3] (setting [8]), the “Average boron concentration, Blood” value is listed as 0.4 ± 0.1 μg B/g; the “Average boron concentration, Brain” value is reported as 0.0 ± 0.1 μg B/g; the “Average boron concentration, Liver” value was determined as 473 ± 102 μg B/g; the “Average boron concentration, EMT-6 Tumor” value was 16.7 ± 8.3 μg B/g. In data set [3] (setting [9]), the “Average boron concentration, Blood” value is on record as 0.2 ± 0.1 μg B/g; the “Average boron concentration, Brain” value is reported as 0.0 ± 0.1 μg B/g; the “Average boron concentration, Liver” value was found to be 354 ± 352 μg B/g; the “Average boron concentration, EMT-6 Tumor” value came to 12.6 ± 5.2 μg B/g.
On to “copper (II) meso-5,15-bis[3-(o-carboranylmethoxy)phenyl]-10,20-bis[3-(β-D-glucosyl)phenyl]porphyrin [Porphyrin VII]”, for which, in data set [4] (setting [10]), the “Average boron concentration, Blood” value was determined as 1.0 ± 0.1 µg/g; the “Average boron concentration, Brain” value stood at 0.3 ± 0.1 µg/g; the “Average boron concentration, Liver” value was found to be 787 ± 70 µg/g; the “Average boron concentration, SCCVII Tumor” value was determined as 29.1 ± 7.9 µg/g. For the same compound, in data set [2] (setting [11]), the “% Weight change” value is listed as −0.18 (−5.6-4.7) %, the Granulocytes is 49 (43-61) % WBC, the Lymphocytes was 47 (37-54) % WBC and the Platelets is on record as 504 (111-783)* 10^3/mm^3. Moreover, in data set [2] (setting [12]), the “% Weight change” value is recorded as 3.5 (−1.5-3.9) %, the Granulocytes is 45 (40-54) % WBC, the Lymphocytes was 52 (44-56) % WBC and the Platelets was 935 (840-1039) 10^3/mm^3. Besides, in data set [3] (setting [13]), the “Average boron concentration, Blood” value is given as 0.4 ± 0.1 μg B/g; the “Average boron concentration, Brain” value came out at 0.0 ± 0.0 μg B/g; the “Average boron concentration, Liver” value came to 457 ± 74 μg B/g; the “Average boron concentration, EMT-6 Tumor” value is 20.2 ± 6.3 μg B/g. In addition, in data set [3] (setting [14]), the “Average boron concentration, Blood” value was 0.2 ± 0.0 μg B/g; the “Average boron concentration, Brain” value is on record as 0.0 ± 0.0 μg B/g; the “Average boron concentration, Liver” value is 492 ± 83 μg B/g; the “Average boron concentration, EMT-6 Tumor” value stood at 19.0 ± 5.4 μg B/g. Moreover, in data set [5] (setting [15]), the “% Weight change” value is given as −1.2 (−2.6-1.9) %, the Granulocytes is recorded as 46 (41-50) % WBC, the Lymphocytes is given as 50 (46-56) % WBC and the Platelets is on record as 739 (628-751) 10^3/mm^3. Further, the thrombocytopenia entry in data set [5] (very high dose of 450 mg/kg) was “no thrombocytopenia”.
On to “copper (II) meso-5,15-bis[m-(3,5-di-o-carboranylmethoxybenzyloxy)phenyl]-10,20-bis[3-(β-D-glucosyl)phenyl]porphyrin [Porphyrin XXIII]”, for which, in data set [4] (setting [16]), the “Average boron concentration, Blood” value is 0.6 ± 0.1 µg/g; the “Average boron concentration, Brain” value was found to be 0.1 ± 0.0 µg/g; the “Average boron concentration, Liver” value came to 540 ± 32 µg/g; the “Average boron concentration, SCCVII Tumor” value was determined as 16.9 ± 2.6 µg/g. In addition, in data set [4] (setting [17]), the “Average boron concentration, Blood” value was 0.3 ± 0 µg/g; the “Average boron concentration, Brain” value is 0.0 ± 0.0 µg/g; the “Average boron concentration, Liver” value was 534 ± 59 µg/g; the “Average boron concentration, SCCVII Tumor” value is 14.5 ± 2.9 µg/g. Also, in data set [5] (setting [18]), the “% Weight change” value was 0.5 (−1.9-3.2) %, the Granulocytes was 43 (32-46) % WBC, the Lymphocytes was 53 (48-64) % WBC and the Platelets is 775 (618-881) 10^3/mm^3. In data set [5] (setting [19]), the “% Weight change” value is on record as 3.2 (0.9-6.3) %, the Granulocytes is 39 (36-43) % WBC, the Lymphocytes was 57 (51-59) % WBC and the Platelets is on record as 655 (610-723) 10^3/mm^3. In data set [5] (moderately high dose of 160 mg/kg), the “platelet count in comparison with the control mice” value is on record as “did not show any decrease in platelet count”.
